Experiments:
[1] = tested on: MDA-MB-468 breast cancer cell line; assay: 3 days CellTiterGlo viability, checkerboard combination, MDA-MB-468; assay type: cell-based; conditions: single agent
Experimental: (§1) In addition, all media contained penicillin (100 IU/ml), streptomycin (100 μg/ml) and L-glutamine (2 mM).
(§2) Cell lines were cultured at 37° C. in a humidified atmosphere containing 5% CO2 and expanded in T-150 flasks. In all cases cells were thawed from frozen stocks, expanded through ≥1 passage using appropriate dilutions, counted and assessed for viability using a CASY cell counter prior to plating 150 μl/well at the densities indicated in Table 2 into 96-well plates.
(§3) Stock solutions of compounds were prepared at a concentration of 5 mM in DMSO and stored at −20° C.
(§4) In order to analyze the activity of the compounds in single agent or in combination, cells were seeded and treated with seven or eight 3.16-fold serial dilutions of each compound dispensed, either individually or in all possible permutations in a checkerboard fashion, directly into the cell assay plates as indicated in FIGS. 5 and 6. Effects of the single agents as well as their checkerboard combinations on cell viability were assessed after 3 days of incubation at 37° C./5% CO2 by quantification of cellular ATP levels using CellTiterGlo at 75 μL reagent/well. At least two independent experiments, each one performed in duplicates, were performed. Luminescence was quantified on a multipurpose plate reader.
(§5) Single agent IC50s were calculated using standard four-parametric curve fitting. Potential synergistic interactions between compound combinations were assessed using the Excess Inhibition 2D matrix according to the Loewe additivity model and are reported as Synergy Score (Lehar et al. 2009). All calculations were performed using Clalice™ Bioinformatics Software available in Horizon website.

[2] = tested on: MDA-MB-453 breast cancer cell line; assay: 3 days CellTiterGlo viability, checkerboard combination, MDA-MB-453; assay type: cell-based; conditions: single agent
Experimental: as §1, §2, §3, §4, §5

[3] = tested on: 2 breast cancer cell lines (MDA-MB-453 and MDA-MB-468) and one lung cancer cell line (H522); assay: 3 days CellTiterGlo viability, summary of the three cell lines; assay type: cell-based; conditions: for cell lines tested whose growth was inhibited by the single agent: three cell lines tested
Experimental: as §1, §2, §3, §4, §5

[4] = tested on: H522 lung cancer cell line; assay: 3 days CellTiterGlo viability, checkerboard combination, H522; assay type: cell-based; conditions: single agent
Experimental: as §1, §2, §3, §4, §5

[5] = tested on: TNBC PDX models 110T, 838T and PDX OD-BRE-0589; conditions: Compound 2 25 mg/kg i.v. weekly for six weeks; three TNBC PDX models
[6] = tested on: MDA-MB-157 breast cancer cell line; assay: 72 hours CellTiter-Glo proliferation assay, MDA-MB-157; assay type: cell-based; conditions: Homo sapiens, single agent, read-out: Abs IC50
Experimental: (§6) Compounds were dissolved in 100% DMSO (Sigma, Catalog # D2438-50 ML) at a stock concentration of 10 mM and stored at −20° C. until use. Compounds were arrayed in 2 ml deep 96-well plates (Greiner bio-one, catalog number 780271) serially diluted 3-fold. Compound 1 was used over a concentration range of 0.0-10.0 μM. Paclitaxel was used over a concentration range of 0.0-1.0 μM in breast cancer cells and 0.0-2.0 μM range in lung cancer cells.
(§7) All cell lines were purchased from the American Type Culture Collection and cultured according to vendor recommendations. […] All cell lines were determined to be free of mycoplasma contamination by a PCR detection assay performed at Idexx Radil (Columbia, Mo., USA) and authenticated by SNP analysis. […] Cells were expanded to T-75 flasks and assessed for viability using a Beckman-Coulter ViCell counter prior to plating. […]
(§8) Cell proliferation was measured in 72 hours CellTiter-Glo™ (CTG) assays and all results shown are the result of at least triplicate measurements. […] After 72 hours of compound treatment the effects of compounds on cell proliferation was determined using the CellTiter-Glo™ Luminescent Cell Viability Assay (Promega, Catalog # G7573). This is a homogeneous method to determine the number of viable cells in culture based on quantitation of the ATP present, which signals the presence of metabolically active cells. […]

[7] = tested on: BT-549 breast cancer cell line; assay: 72 hours CellTiter-Glo proliferation assay, BT-549; assay type: cell-based; conditions: Homo sapiens, single agent, read-out: Abs IC50
Experimental: as §6, §7, §8

[8] = tested on: HCC70 breast cancer cell line; assay: 72 hours CellTiter-Glo proliferation assay, HCC70; assay type: cell-based; conditions: Homo sapiens, single agent, read-out: Abs IC50
Experimental: as §6, §7, §8

[9] = tested on: HCC1395 breast cancer cell line; assay: 72 hours CellTiter-Glo proliferation assay, HCC1395; assay type: cell-based; conditions: Homo sapiens, single agent, read-out: Abs IC50
Experimental: as §6, §7, §8

[10] = tested on: MDA-MB-231 breast cancer cell line; assay: 72 hours CellTiter-Glo proliferation assay, MDA-MB-231; assay type: cell-based; conditions: Homo sapiens, single agent, read-out: Abs IC50
Experimental: as §6, §7, §8

[11] = tested on: MDA-MB-436 breast cancer cell line; assay: 72 hours CellTiter-Glo proliferation assay, MDA-MB-436; assay type: cell-based; conditions: Homo sapiens, single agent, read-out: Abs IC50
Experimental: as §6, §7, §8

[12] = tested on: MDA-MB-453 breast cancer cell line; assay: 72 hours CellTiter-Glo proliferation assay, MDA-MB-453; assay type: cell-based; conditions: Homo sapiens, single agent, read-out: Abs IC50
Experimental: as §6, §7, §8

[13] = tested on: BT-474 breast cancer cell line; assay: 72 hours CellTiter-Glo proliferation assay, BT-474; assay type: cell-based; conditions: Homo sapiens, single agent, read-out: Abs IC50
Experimental: as §6, §7, §8

[14] = tested on: HCC38 breast cancer cell line; assay: 72 hours CellTiter-Glo proliferation assay, HCC38; assay type: cell-based; conditions: Homo sapiens, single agent, read-out: Abs IC50
Experimental: as §6, §7, §8

[15] = tested on: Cal-148 breast cancer cell line; assay: 72 hours CellTiter-Glo proliferation assay, Cal-148; assay type: cell-based; conditions: Homo sapiens, single agent, read-out: Abs IC50
Experimental: as §6, §7, §8

[16] = tested on: SK-BR-3 breast cancer cell line; assay: 72 hours CellTiter-Glo proliferation assay, SK-BR-3; assay type: cell-based; conditions: Homo sapiens, single agent, read-out: Abs IC50
Experimental: as §6, §7, §8

[17] = tested on: A549 lung cancer cell line; assay: 72 hours CellTiter-Glo proliferation assay, A549; assay type: cell-based; conditions: Homo sapiens, single agent, read-out: Abs IC50
Experimental: as §6, §7, §8

MDA-MB-231 xenografts = assay: MDA-MB-231 breast xenograft model, antitumor efficacy; assay type: in vivo, female nude rats; conditions: paclitaxel 7.5 mg/kg iv QW
[18] = tested on: HCC1937 breast cancer cell line; assay: 72 hours CellTiter-Glo proliferation assay, HCC1937; assay type: cell-based; conditions: Homo sapiens, single agent, read-out: Abs IC50
Experimental: as §6, §7, §8

[19] = tested on: HCC1143 breast cancer cell line; assay: 72 hours CellTiter-Glo proliferation assay, HCC1143; assay type: cell-based; conditions: Homo sapiens, single agent, read-out: Abs IC50
Experimental: as §6, §7, §8

[20] = tested on: BT-20 breast cancer cell line; assay: 72 hours CellTiter-Glo proliferation assay, BT-20; assay type: cell-based; conditions: Homo sapiens, single agent, read-out: Abs IC50
Experimental: as §6, §7, §8

[21] = tested on: NCI-H23 lung cancer cell line; assay: 72 hours CellTiter-Glo proliferation assay, NCI-H23; assay type: cell-based; conditions: Homo sapiens, single agent, read-out: Abs IC50
Experimental: as §6, §7, §8

[22] = tested on: HCC1500 breast cancer cell line; assay: 72 hours CellTiter-Glo proliferation assay, HCC1500; assay type: cell-based; conditions: single agent, read-out: Abs IC50
Experimental: as §6, §7, §8

[23] = tested on: MCF7 breast cancer cell line; assay: 72 hours CellTiter-Glo proliferation assay, MCF7; assay type: cell-based; conditions: Homo sapiens, single agent, read-out: Abs IC50
Experimental: as §6, §7, §8

[24] = tested on: NCI-H522 lung cancer cell line; assay: 72 hours CellTiter-Glo proliferation assay, NCI-H522; assay type: cell-based; conditions: Homo sapiens, single agent, read-out: Abs IC50
Experimental: as §6, §7, §8

[25] = tested on: MDA-MB-468 breast cancer cell line; assay: 72 hours CellTiter-Glo proliferation assay, MDA-MB-468; assay type: cell-based; conditions: Homo sapiens, single agent, read-out: Abs IC50
Experimental: as §6, §7, §8

[26] = tested on: Hs 578T breast cancer cell line; assay: 72 hours CellTiter-Glo proliferation assay, Hs 578T; assay type: cell-based; conditions: Homo sapiens, single agent, read-out: Abs IC50
Experimental: as §6, §7, §8

[27] = tested on: HCC1954 breast cancer cell line; assay: 72 hours CellTiter-Glo proliferation assay, HCC1954; assay type: cell-based; conditions: Homo sapiens, single agent, read-out: Abs IC50
Experimental: as §6, §7, §8

SK-BR-3 cells = assay: SK-BR-3 viability (Cell Titer Glo, propidium iodide), Bliss synergy; assay type: cell-based; conditions: QVD-OPh 10 μM, propidium iodide staining, 72 hours

Cc1c(-c2c(-c3ccc(F)o3)sc3ncnc(O[C@H](Cc4ccccc4OCc4ccnn4CC(F)(F)F)C(=O)O)c23)ccc(OCCN2CCN(C)CC2)c1Cl [Compound 2, (2R)-2-{[(5Sa)-5-{3-chloro-2-methyl-4-[2-(4-methylpiperazin-1-yl)ethoxy]phenyl}-6-(5-fluorofuran-2-yl)thieno[2,3-d]pyrimidin-4-yl]oxy}-3-(2-{[1-(2,2,2-trifluoroethyl)-1H-pyrazol-5-yl]methoxy}phenyl)propanoic acid]
IC50 [1]: > 2000 nM | Mean of Max Inh [1]: 24.0% | IC50 [2]: > 2000 nM | Mean of Max Inh [2]: 21.0% | cell lines tested whose growth was inhibited by the single agent [3]: 1/3 | Mean of Max Inh ([4]; H522, 3 days): 92.0% | IC50 ([4]; H522 cell line): 140 nM | inhibition of tumor growth, single agent [5]: insufficient in inhibiting tumor growth

CC(=O)O[C@H]1C(=O)[C@@]2(C)[C@H]([C@H](OC(=O)c3ccccc3)[C@]3(O)C[C@H](OC(=O)[C@H](O)[C@@H](NC(=O)c4ccccc4)c4ccccc4)C(C)=C1C3(C)C)[C@]1(OC(C)=O)CO[C@@H]1C[C@@H]2O [Paclitaxel, paclitaxel, reference compound]
IC50 [6]: > 1000 nM | IC50 [7]: 8.82 nM | IC50 [8]: 8.39 nM | IC50 ([1]; Homo sapiens, 72 h): 0.9 nM | Mean of Max Inh [1]: 75.0% | IC50 [9]: 8.03 nM | IC50 [10]: 17.5 nM | IC50 [11]: 14.7 nM | IC50 ([2]; Homo sapiens, 72 h): > 1000 nM | Mean of Max Inh [2]: 37.0% | IC50 [12]: 4.2 nM | IC50 [13]: 1.7 nM | IC50 [14]: 4.33 nM | IC50 [15]: 4.25 nM | IC50 [16]: 2.66 nM | IC50 [17]: 0.163 nM | T/C % (MDA-MB-231 xenografts): 34% | IC50 [18]: 11.6 nM | IC50 ([3]; single agent, 2/3 lines tested, read-out: IC50 in the cell lines inhibited): < 1 nM | cell lines tested whose growth was inhibited by the single agent [3]: 2/3 | Mean of Max Inh ([4]; H522, 3 days): 61.0% | IC50 ([4]; Homo sapiens, NCI-H522, 72 h, H522, 3 days): 0.2 nM | IC50 [19]: 9.43 nM | IC50 [20]: 5.97 nM | IC50 [21]: 0.22 nM | IC50 [22]: > 1000 nM | IC50 [23]: 10.4 nM | IC50 [24]: 0.48 nM | IC50 [25]: 3.07 nM | IC50 [26]: 0.363 nM | IC50 [27]: 6.5 nM

CC(C)[C@H](NC(=O)c1ccc2ccccc2n1)C(=O)N[C@@H](CC(=O)O)C(=O)COc1c(F)cccc1F [QVD-OPH, QVD-OPh hydrate]
effect on cell death induced by docetaxel and Compound 2 (SK-BR-3 cells): efficiently blocked cell death

From US10765680B2, “Combination of a MCL-1 inhibitor and a taxane compound, uses and pharmaceutical compositions thereof” (priority 2017, dated 2020)
